Laboratory results from US20150168379A1, “METHOD OF IDENTIFYING AND SCREENING DRUG CANDIDATE FOR PREVENTING AND/OR TREATING ISCHEMIC MYOCARDIAL DISEASE” (Macau University of Science and Technology, priority 2013, published 2015).
“Also recorded” adds a separate entry of the source.

Key:
H9C2 cell line [1] = assay: ROS release (DCFDA, flow cytometer); assay type: cell-based
Procedure: Cells were harvested and a single cell suspension was produced by gently pipetting up and down suspension cells or by fully detaching adherent cells. Cells in culture media were stained with 20 μM DCFDA and incubated for 30 minutes at 37° C. After staining, cells were treated with Rg1, DOX or Sil. Cells were gently pipetted to produce single cell suspension. Cells were then analyzed by flow cytometer in which forward and side scatter gates were established to exclude debris and cellular aggregates from the analysis. DCF was excited by the 488 nm laser and detected at 535 nm (typically FL1). 10,000 cells were analyzed per experimental condition. The whole study was repeated 3 times.

H9C2 cell line [2] = assay: Mitochondrial membrane potential changes by flow cytometer (JC-1); assay type: cell-based
Procedure: (§1) Myocardial cell lines, H9C2 and HL-1 were respectively seeded into culture dishes. KRB (Krebs-Ringer Bicarbonate buffer) solution replaced normal DMEM medium without the addition of serum. Cells were immediately placed in adjustable hypoxia box (Billups-Rothenberg) connected with gas flowmeter (rate of flow: 25L/min), in which the partial pressure of oxygen in the box was made to decrease from 20 kPa to 0 kPa within one minute. Hypoxia box was placed in a regular incubator for different incubation periods to create hypoxia conditions. Hypoxia box was then opened and the medium was replaced with normal medium containing serum, followed by normal incubation at 37° C. for the time periods corresponding to those in the hypoxia conditions in order to create re-oxygenation conditions.
(§2) Seven components of protopanaxatriol-type ginsenosides, namely Re, Rf, Rg1, 20(S)-Rg2, 20(R)-Rg2, 20(S)-Rh1 and 20(R)-Rh1, were used to pre-treat myocardial cells. Each component was dissolved with normal medium and DMSO as co-solvent and used to pre-treat cells one hour before hypoxia. Subsequently, medium was replaced with hypoxia medium. The effects of each component on survival, mitochondrial respiration, morphology, and mitochondrial function and movement of myocardial cells were analyzed, and the results thereof were used in candidate agent selection.
Membrane potential of mitochondria, apoptosis rate, ROS release and cell cytotoxicity of myocardial cells were analyzed by flow cytometry. Upon pre-treatment of cells in different groups with Rg1, Sil (Sildenafil, the positive control drug), DOX (Doxorubicin, a cardiac toxic chemical which can induce H/R damage in myocardial cells) or FCCP (Carbonyl cyanide 4-(trifluoromethoxy) phenylhydrazone), the cells were then treated with hypoxia and reoxygenation conditions, in which the duration of each condition was 3 hours. 1 ml PBS buffer was added into culture dish with mixing. […] Fluorescence intensity of cells were analyzed by flow cytometry (each sample contains more than 10,000 cells). […]

H9C2 cell line [3] = assay: Apoptosis rate of myocardial cells under hypoxia and reoxygenation by flow cytometry; assay type: cell-based; conditions: 3-hour hypoxia and 3-hour reoxygenation
Procedure: as §1, with “Hypoxia box was then opened and the medium was replaced with normal medium containing serum, followed by normal incubation at 37° C. for the time periods corresponding to those in the hypoxia conditions in order to create re-oxygenation conditions.” left out
as §2, with “Each component was dissolved with normal medium and DMSO as co-solvent and used to pre-treat cells one hour before hypoxia. Subsequently, medium was replaced with hypoxia medium.” left out
(§3) Membrane potential of mitochondria, apoptosis rate, ROS release and cell cytotoxicity of myocardial cells were analyzed by flow cytometry. […] Fluorescence intensity of cells were analyzed by flow cytometry (each sample contains more than 10,000 cells). Cell fluorescence image was analyzed with fluorescence intensity of Rh123 as x-axis and fluorescence intensity of PI as y-axis. […]

Mitofusin 2 (Mfn2) = molecular target: T1, Mitofusin 2 (Mfn2) (Mus musculus, UniProt Q80U63); assay: Binding with mitofusin-2 in myocardial cells under hypoxia and reoxygenation (western blotting); conditions: FIG. 9
T1 construct: endogenous in cells; host or cells: myocardial cells under hypoxia and reoxygenation (method text: total protein from mouse myocardial infarction tissue)
T1 sequence (Q80U63 1-757): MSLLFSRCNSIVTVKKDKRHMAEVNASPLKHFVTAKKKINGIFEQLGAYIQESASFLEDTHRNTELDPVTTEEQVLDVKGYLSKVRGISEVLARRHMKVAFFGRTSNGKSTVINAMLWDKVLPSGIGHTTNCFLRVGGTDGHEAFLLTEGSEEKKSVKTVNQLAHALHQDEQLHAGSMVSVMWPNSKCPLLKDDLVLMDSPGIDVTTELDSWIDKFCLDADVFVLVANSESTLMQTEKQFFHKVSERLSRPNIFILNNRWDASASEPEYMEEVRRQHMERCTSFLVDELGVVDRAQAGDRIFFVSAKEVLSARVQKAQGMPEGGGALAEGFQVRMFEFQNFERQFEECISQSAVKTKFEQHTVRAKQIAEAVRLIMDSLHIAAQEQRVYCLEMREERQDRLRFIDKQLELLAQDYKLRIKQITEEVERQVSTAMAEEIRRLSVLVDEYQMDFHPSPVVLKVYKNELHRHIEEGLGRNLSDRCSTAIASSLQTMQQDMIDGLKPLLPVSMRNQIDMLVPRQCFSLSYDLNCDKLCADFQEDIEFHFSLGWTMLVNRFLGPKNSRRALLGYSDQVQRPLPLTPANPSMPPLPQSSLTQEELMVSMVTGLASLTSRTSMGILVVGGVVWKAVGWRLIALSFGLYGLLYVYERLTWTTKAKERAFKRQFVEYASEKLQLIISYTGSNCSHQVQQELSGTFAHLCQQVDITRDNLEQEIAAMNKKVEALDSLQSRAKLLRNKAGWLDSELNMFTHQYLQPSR

H9C2 cell line [4] = assay: Survival rate of myocardial cells under hypoxia and reoxygenation (MTT); assay type: cell-based; conditions: H9C2, pre-treated one hour before hypoxia, FIG. 2/3
Procedure: as §1, with “Hypoxia box was then opened and the medium was replaced with normal medium containing serum, followed by normal incubation at 37° C. for the time periods corresponding to those in the hypoxia conditions in order to create re-oxygenation conditions.” left out
Seven components of protopanaxatriol-type ginsenosides, namely Re, Rf, Rg1, 20(S)-Rg2, 20(R)-Rg2, 20(S)-Rh1 and 20(R)-Rh1, were used to pre-treat myocardial cells. […] The effects of each component on survival, mitochondrial respiration, morphology, and mitochondrial function and movement of myocardial cells were analyzed, and the results thereof were used in candidate agent selection. […]
Optical density (OD) of cells was measured at wavelength of 570 nm by multiple-well plate spectrophotometer. Survival rate of the cells incubated under normal condition was set as 100%, and the survival rate of the blank control group was measured simultaneously as baseline for background subtraction. […]

[5] = test system: bal-2, procaspase-3, procaspase-9, Akt, and Erk in myocardial cells; assay: Expression levels of proteins of the mitochondrial-induced apoptosis pathway by western blotting; assay type: cell-based; conditions: 100 μM
H9C2 cell line [6] = assay: Cell cytotoxicity of myocardial cells under hypoxia and reoxygenation by flow cytometry; assay type: cell-based; conditions: pretreated, FIG. 5
Procedure: as §1, with “Hypoxia box was then opened and the medium was replaced with normal medium containing serum, followed by normal incubation at 37° C. for the time periods corresponding to those in the hypoxia conditions in order to create re-oxygenation conditions.” left out
Seven components of protopanaxatriol-type ginsenosides, namely Re, Rf, Rg1, 20(S)-Rg2, 20(R)-Rg2, 20(S)-Rh1 and 20(R)-Rh1, were used to pre-treat myocardial cells. […] The effects of each component on survival, mitochondrial respiration, morphology, and mitochondrial function and movement of myocardial cells were analyzed, and the results thereof were used in candidate agent selection.
as §3

[7] = 100 μM, compared with the control group
[8] = 200 μM, compared with the control group

## CC(C)=CCC[C@](C)(O[C@@H]1O[C@H](CO)[C@@H](O)[C@H](O)[C@H]1O)[C@H]1CC[C@]2(C)[C@@H]1[C@H](O)C[C@@H]1[C@@]3(C)CC[C@H](O)C(C)(C)[C@@H]3[C@@H](O[C@@H]3O[C@H](CO)[C@@H](O)[C@H](O)[C@H]3O)C[C@]12C [Rg1]
H9C2 cell line [1]; [7]
  ROS release: significantly reduce the release of ROS
H9C2 cell line [1]; [8]
  ROS release: significantly reduce the release of ROS
H9C2 cell line [1]; concentration not given, FIG. 7
  ROS release: can decrease the release of ROS
H9C2 cell line [2]; [7]
  Mitochondrial membrane potential changes: significantly reduce the decrease of mitochondrial membrane potential changes
H9C2 cell line [2]; [8]
  Mitochondrial membrane potential changes: significantly reduce the decrease of mitochondrial membrane potential changes
H9C2 cell line [2]; JC-1, hypoxia and reoxygenation, concentration not given, FIG. 6
  Mitochondrial membrane potential changes: can inhibit the decrease of mitochondrial membrane potential changes
H9C2 cell line [3]; [7]
  Apoptosis rate of myocardial cells: significantly inhibit apoptosis
H9C2 cell line [3]; 200 μM
  Apoptosis rate of myocardial cells: can decrease apoptosis rate; also recorded: significantly inhibit apoptosis
Mitofusin 2 (Mfn2)
  Binding with Mitofusin 2 (Mfn2) in mitochondria: binding with Mitofusin 2 (Mfn2)
H9C2 cell line [4]
  Survival rate of myocardial cells: capable of increasing survival rate
[5]
  Protection for myocardial cells induced by hypoxia and reoxygenation: significant protection
H9C2 cell line [6]
  Cytotoxicity of myocardial cells: can decrease the cytotoxicity
